Like-named read-outs stand apart in the source and are kept apart here.

One test has as its system OB interneurons. As to the kind of experiment: Neurotransmitter expression in olfactory bulb interneurons after kin/non-kin odorant exposure. The test is classed as in vivo, Xenopus laevis.
The next test deals with VSC neurons. The test is classed as in vivo, Xenopus. The procedure:
(§1) Neuropharmacology. […] For selective ablation of VSCDA neurons, MPTP was bath-applied in the dark to larvae for 8 h at stage 41. 100 mM deprenyl (Sigma) was bath-applied to inhibit monoamine oxidase.
Immunocytochemistry. The number of neurons in the VSC was quantified by counting the cells within the core and the surrounding annular region in sections of the diencephalon.
A pharmacological approach to test the involvement of electrical activity and calcium signaling was then performed. […] agarose beads loaded with calcein acetoxymethylester (calcein-AM) tracer were implanted in the roof of the hypothalamus above the VSC to evaluate the time course of drug delivery.

A further test relates to Xenopus larvae. Kind of test: Skin pigmentation adaptation to illumination/background in larvae. The test is classed as in vivo. The settings on record: for light-dependent changes in pigmentation (reduction in pigmented area) driven by newly induced TH/NPY annular neurons: MPTP-light and control larvae, sulpiride 10 nM during 30-min exposure to white background (FIG. 6c). How it is done: Illumination experiments. The optimal condition for altering skin pigmentation and numbers of TH neurons were determined by raising larvae under two illumination conditions. In the first, larvae were placed on black, grey or white backgrounds (corresponding to N2.25, N7.25 or N9.5 on the Munsell neutral value scale of a monochromatic colour wheel) with constant illumination (331 lux (lx)). In the second, larvae on a white, grey or black background were exposed to constant illumination (6,560 lx, measured with a light meter (Sper Scientific)-equivalent to shady illumination on a sunny day), or to constant dark or to 12 h light/12 h dark. […] For some tests of the functional significance of newly TH neurons, animals were raised under different light/background conditions and a conditioning step of 30 min light/white background exposure was imposed to achieve similar levels of skin pigmentation before comparing light or dark adaptation between these groups.
as §1

As to `NC1=N[C@H](O)[C@H]2[C@H]3O[C@]4(O)O[C@@H]([C@@H](O)[C@@]2(N1)[C@@H]4O)[C@]3(O)CO` [TTX, tetrodotoxin], the “changes in NT phenotype (dopamine/GABA coexpression) after kin or nonkin exposure” value with OB interneurons (in vivo) was “prevents”. The “number of TH neurons or NPY/TH annular neurons in the VSC” value in the test on VSC neurons (in vivo) is on record as “no increase”.
Take `CN1CC=C(c2ccccc2)CC1` [MPTP, 1-methyl-4-phenyl-1,2,3,6-tetrahydropyridine]: the “changes in pigmentation after 30 min exposure to light / white background” value in the test on Xenopus larvae (dark-raised, MPTP-treated larvae (MPTP-dark group, FIG. 6c)) was “abolished”.
With `CC(=O)OCOC(=O)CN(CC(=O)OCOC(C)=O)c1ccccc1OCCOc1ccccc1N(CC(=O)OCOC(C)=O)CC(=O)OCOC(C)=O` [BAPTA-AM, 1,2-bis-(o-aminophenoxy)-ethane-N,N,N9,N9-tetraacetic acid, tetraacetoxymethyl ester], the “changes in NT phenotype (dopamine/GABA coexpression) after kin or nonkin exposure” value with OB interneurons (local delivery, stage 45 larvae, 48 hr odorant exposure) is “prevents”. Also, the “number of TH neurons or NPY/TH annular neurons in the VSC” value in the test with VSC neurons (drug-loaded agarose beads implanted above the VSC, 2 h white light following 24 h in the dark (FIG. 4b, c)) is “no increase”. Moreover, the “NPY/TH colocalization in VSC sections of bead-implanted larvae” value with VSC neurons (larvae exposed to 2 h light, versus white-adapted control and calcein bead (FIG. 4B)) is “absent”.
With `CCN1CCCC1CNC(=O)c1cc(S(N)(=O)=O)ccc1OC` (centres unmarked) [sulpiride], the “light-dependent changes in pigmentation (reduction in pigmented area) driven by newly induced TH/NPY annular neurons” value with Xenopus larvae is given as “blocked”; in the test with Xenopus larvae (listed as Sulpiride) it was “blocks”. Also, in the test with Xenopus larvae (stage-42 larvae raised in the dark, 10 nM sulpiride for 30 min (FIG. 1c)), the “changes in skin pigmentation in response to altered illumination” value is on record as “blocked”. In the test with VSC neurons (sulpiride-treated larvae), the “number of TH VSC neurons” value is given as “not affected”.
As for `Oc1cc2c(cc1O)C(c1ccccc1)CNCC2` (centres unmarked) [SKF-38393], the “effect on pigmentation behaviour” value in the test on Xenopus larvae (D1 receptor agonist and antagonist, opposite effect to the D2 ligands) was “darkening”.

These data come from patent US20120283193A1, “MANIPULATION OF BRAIN IN A CIRCUIT-SPECIFIC MANNER” (priority 2009, published 2012).
